Reference: US20250250264A1, “KIF18A INHIBITOR AND USE THEREOF” (Wuhan Humanwell Innovative Drug Research and Development …, priority 2022, published 2025)

How the values were obtained:
[1] = target: recombinant protein KIF18A (kinesin domain: aa 1-467) (Homo sapiens (Human), UniProt Q8NI77); assay: Assay on inhibition of KIF18A enzymatic activity (ADP-Glo); format: biochemical; conditions: KIF18A 80 nM, ATP 80 μM, 3 h at room temperature, ADP-Glo luminescence; read-out: IC50 (μM), inhibitory effects of compounds on KIF18A enzymatic activity
recombinant protein KIF18A (kinesin domain: aa 1-467), sequence (Q8NI77 1-467): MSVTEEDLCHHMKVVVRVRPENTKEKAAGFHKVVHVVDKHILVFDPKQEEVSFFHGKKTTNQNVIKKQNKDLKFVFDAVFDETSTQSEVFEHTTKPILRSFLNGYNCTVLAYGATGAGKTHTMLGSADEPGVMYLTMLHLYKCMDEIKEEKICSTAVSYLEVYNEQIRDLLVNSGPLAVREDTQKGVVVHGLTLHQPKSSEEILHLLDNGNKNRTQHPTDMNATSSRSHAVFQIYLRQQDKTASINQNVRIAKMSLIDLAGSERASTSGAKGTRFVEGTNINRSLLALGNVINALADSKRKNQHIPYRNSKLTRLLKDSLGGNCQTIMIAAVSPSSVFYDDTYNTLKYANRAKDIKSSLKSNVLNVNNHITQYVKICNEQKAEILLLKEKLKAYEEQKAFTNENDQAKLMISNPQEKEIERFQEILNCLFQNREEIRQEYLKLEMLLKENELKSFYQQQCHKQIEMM
recombinant protein KIF18A (kinesin domain: aa 1-467), sequence (P02550 whole entry partner, the tested form may be a part): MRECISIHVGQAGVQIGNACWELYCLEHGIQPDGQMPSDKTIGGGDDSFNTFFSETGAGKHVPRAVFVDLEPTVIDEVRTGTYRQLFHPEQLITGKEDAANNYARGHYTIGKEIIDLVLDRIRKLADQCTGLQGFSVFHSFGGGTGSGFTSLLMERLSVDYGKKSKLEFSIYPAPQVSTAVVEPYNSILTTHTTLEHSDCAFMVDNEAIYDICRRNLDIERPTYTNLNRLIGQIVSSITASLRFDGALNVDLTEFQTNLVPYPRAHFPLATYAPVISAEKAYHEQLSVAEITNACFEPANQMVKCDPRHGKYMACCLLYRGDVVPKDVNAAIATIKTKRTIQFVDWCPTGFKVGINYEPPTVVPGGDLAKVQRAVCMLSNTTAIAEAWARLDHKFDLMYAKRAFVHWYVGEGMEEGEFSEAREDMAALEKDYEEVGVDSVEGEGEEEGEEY
recombinant protein KIF18A (kinesin domain: aa 1-467), sequence (P02554 whole entry partner, the tested form may be a part): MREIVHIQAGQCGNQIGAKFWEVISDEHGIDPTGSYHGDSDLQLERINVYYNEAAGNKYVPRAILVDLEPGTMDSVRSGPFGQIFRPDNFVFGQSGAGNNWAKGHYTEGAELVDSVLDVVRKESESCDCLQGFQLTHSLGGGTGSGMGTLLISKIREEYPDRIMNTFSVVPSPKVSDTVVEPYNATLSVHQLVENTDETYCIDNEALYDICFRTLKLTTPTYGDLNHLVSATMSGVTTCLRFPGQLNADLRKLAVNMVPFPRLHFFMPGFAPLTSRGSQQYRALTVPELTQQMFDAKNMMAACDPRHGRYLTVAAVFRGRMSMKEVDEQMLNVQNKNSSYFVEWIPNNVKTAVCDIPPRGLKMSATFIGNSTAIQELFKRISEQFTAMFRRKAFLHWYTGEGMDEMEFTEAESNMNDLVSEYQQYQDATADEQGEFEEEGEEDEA
Source text: The recombinant protein KIF18A (kinesin domain: aa 1-467) used in this assay was expressed by the Bac-to-Bac baculovirus expression system from Invitrogen, and the resulting protein was purified for use in this assay (Seki, M. et al. 2003 Nucleic Acids Res.). Quantitative detection of KIF18A enzymatic activity was completed using an ADP-Glo™ kinase assay kit (Promega Inc). Related procedures strictly followed the product instructions, which are briefly described as follows:
The reaction system consisted of a test compound, the recombinant protein KIF18A (aa 1-467), ATP (Promega Inc), and an assay buffer. The test compound was prepared into a 0.5 mM stock solution using DMSO (Sigma Inc) and then serially diluted in DMSO. The assay buffer consisted of an aqueous solution of 15 mM Tris, 10 mM MgCl2 (Sigma Inc), 0.01% Pluronic F-68 (Life Technologies Inc), 1 μM paclitaxel (Cytoskeleton Inc), 30 μg/mL porcine tubulin (Cytoskeleton Inc), and 2% DMSO. The KIF18A protein (final concentration: 80 nM) and the compound at different concentrations (1 μL) were added to the prepared assay buffer (50 μL), and the mixture was incubated at room temperature for 15 min. Then, ATP (final concentration: 80 μM) was added to the reaction mixture, and the resulting mixture was incubated at room temperature for 3 h. After the reaction was completed, 5 μL of the ADP-Glo™ reagent and 2.5 μL of the reaction mixture were added to a 384-well plate (Grenier Inc). The resulting mixture was mixed homogeneously, then sealed by an aluminum foil sealing film, and incubated at room temperature in the dark for 40 min. Finally, 10 μL of the […] was added to each reaction well, and the mixture was incubated at room temperature in the dark for 40 min. After all reactions were completed, the luminescence values of the wells were read on a microplate reader (Molecular Device_SpectraMax Id5), and the inhibition ratios were calculated. The calculation formula for the inhibition rates was as follows: inhibition rate=(1−(compound group−blank group)/(negative control group−blank group))×100%. Then, based on the inhibition rates at different compound concentrations, the IC50 value of the test compound was calculated using the GraphPad Prism 8 software.

[2] = tested on: NIH:OVCAR-3 cells; assay: Assay on inhibition of OVCAR3 tumor cell proliferation (CellTiter-Glo); format: cell-based; conditions: Homo sapiens, OVCAR-3, 72 h, 3 days of drug treatment, read-out: IC50 (μM), inhibitory effects of compounds on tumor cell proliferation
Description: NIH:OVCAR-3 cells (ATCC, Cat No. HTB-161, purchased from Co-Bier) were seeded into a T75 culture flask and cultured in an RPMI 1640 medium containing 20% FBS for 3 days in preparation for subsequent culturing and seeding into a 96-well plate for the cell proliferation assay.
The OVCAR3 cells were seeded at a density of 3000 cells/100 μL/well into the 96-well cell plate, and then the plate was incubated in an incubator (37° C., 5% CO2) for 18 h. On the second day, drug treatment was started. Serially diluted test compound solutions (each drug starting at a concentration of 10 μM, diluted in DMSO, with a dilution ratio of 1:3, and nine gradient points for each drug) or DMSO (negative control) was added to the medium in the plate at 100 μL/well, and a blank group was set up with only medium, but no seeded cell strains. After the drug addition, the plate was incubated in the incubator for another 3 days (37° C., 5% CO2). On the fourth day, plate detection was performed. To each well, 100 μL of CellTiter-Glo reagent (Promega G9243) was added. The plate was shaken for 5 min and then left to stand at room temperature for 5 min. The chemical luminescence signal value of each well was determined using a microplate reader (PerkinElmer EnVision®2104). Cell proliferation inhibition rate=(1−(compound group−blank group)/(DMSO group−blank group))×100%. Then, the IC50 value of each compound was calculated using the GraphPad Prism 8 software.

Structure (SMILES)	IC50 [1] [µM]	IC50 [2] [µM]
Cc1cc(-c2nnc(-c3ccc(NS(=O)(=O)CCO)cc3N3CCC4(CC3)CC4)o2)nc(N2CCCC(F)(F)C2)n1 [Example I-7, N-(4-(5-(2-(3,3-Difluoropiperidin-1-yl)-6-methylpyrimidin-4-yl)-1,3,4-oxadiazol-2-yl)-3-(6-azaspiro[2.5]octan-6-yl)phenyl)-2-hydroxyethane-1-sulfonamide]	0.001	0.073
Cc1cc(-c2nnc(-c3ccc(NS(=O)(=O)CCO)cc3N3CCC4(CC3)CC4)o2)nc(N2CCCC(F)C2)n1 (centres unmarked) [Example I-102, N-(4-(5-(2-(3-Fluoropiperidin-1-yl)-6-methylpyrimidin-4-yl)-1,3,4-oxadiazol-2-yl)-3-(6-azaspiro[2.5]octan-6-yl)phenyl)-2-hydroxyethane-1-sulfonamide]	0.004	0.144
O=c1ccc(-c2cnn(-c3ccc(NS(=O)(=O)CCO)cc3N3CCC4(CC3)CC4)c2)nn1C1CC(F)(F)C1 [Example I-121, N-(4-(4-(1-(3,3-Difluorocyclobutyl)-6-oxo-1,6-dihydropyridazin-3-yl)-1H-pyrazol-1-yl)-3-(6-azaspiro[2.5]octan-6-yl)phenyl)-2-hydroxyethane-1-sulfonamide]	0.003	0.056
O=S(=O)(CCO)Nc1ccc(-n2cc(-c3cc(C(F)F)nc(N4CCC(F)(F)CC4)c3)cn2)c(N2CCC3(CC2)CC3)c1 [Example I-107, N-(4-(4-(2-(Difluoromethyl)-6-(4,4-difluoropiperidin-1-yl)pyridin-4-yl)-1H-pyrazol-1-yl)-3-(6-azaspiro[2.5]octan-6-yl)phenyl)-2-hydroxyethane-1-sulfonamide]	0.008	0.213
Cc1cc(-c2nnc(-c3ccc(NS(=O)(=O)CCO)cc3N3CCC4(CC3)CC4)o2)nc(N2CCO[C@H](C)C2)c1 [Example I-1, (R)-2-Hydroxy-N-(4-(5-(4-methyl-6-(2-methylmorpholino)pyridin-2-yl)-1,3,4-oxadiazol-2-yl)-3-(6-azaspiro[2.5]octan-6-yl)phenyl)ethane-1-sulfonamide]	0.033	0.045
Cc1cc(-c2nnc(-c3ccc(NS(=O)(=O)[C@H](C)CO)cc3N3CCC4(CC3)CC4)o2)nc(N2CCC(F)(F)CC2)n1 [Example I-40, (R)—N-(4-(5-(2-(4,4-Difluoropiperidin-1-yl)-6-methylpyrimidin-4-yl)-1,3,4-oxadiazol-2-yl)-3-(6-azaspiro[2.5]octan-6-yl)phenyl)-1-hydroxypropane-2-sulfonamide]	0.011	0.076
Cc1cc(-c2nnc(-c3ccc(NS(=O)(=O)CCO)cc3N3CCC4(CC3)CC4)o2)nc(N2CC(F)(F)C2)n1 [Example I-3, N-(4-(5-(2-(3,3-Difluoroazetidin-1-yl)-6-methylpyrimidin-4-yl)-1,3,4-oxadiazol-2-yl)-3-(6-azaspiro[2.5]octan-6-yl)phenyl)-2-hydroxyethane-1-sulfonamide]	0.011	0.051
Cc1cc(-c2cnn(-c3ccc(NS(=O)(=O)[C@@H](C)CO)cc3N3CCC4(CC3)CC4)c2)nc(N2CCC(F)(F)CC2)n1 [Example I-112, (S)—N-(4-(4-(2-(4,4-Difluoropiperidin-1-yl)-6-methylpyrimidin-4-yl)-1H-pyrazol-1-yl)-3-(6-azaspiro[2.5]octan-6-yl)phenyl)-1-hydroxypropane-2-sulfonamide]	0.002	0.107
Cc1cc(-n2cc(-c3ccc(NS(=O)(=O)CCO)cc3N3CCC4(CC3)CC4)cn2)nc(N2CCC(F)(F)CC2)n1 [Example I-81, N-(4-(1-(2-(4,4-Difluoropiperidin-1-yl)-6-methylpyrimidin-4-yl)-1H-pyrazol-4-yl)-3-(6-azaspiro[2.5]octan-6-yl)phenyl)-2-hydroxyethane-1-sulfonamide]	–	0.393
Cc1cc(-c2nnc(-c3ccc(NS(=O)(=O)CCO)cc3N3CCC4(CC3)CC4)o2)nc(N2C[C@@H](F)[C@@H](F)C2)n1 [Example I-101, N-(4-(5-(2-((3S,4R)-3,4-Difluoropyrrolidin-1-yl)-6-methylpyrimidin-4-yl)-1,3,4-oxadiazol-2-yl)-3-(6-azaspiro[2.5]octan-6-yl)phenyl)-2-hydroxyethane-1-sulfonamide]	0.008	0.26
Cc1cc(-c2cn(-c3ccc(NS(=O)(=O)CCO)cc3N3CCC4(CC3)CC4)nn2)nc(N2CCC(F)(F)CC2)n1 [Example I-79, N-(4-(4-(2-(4,4-Difluoropiperidin-1-yl)-6-methylpyrimidin-4-yl)-1H-1,2,3-triazol-1-yl)-3-(6-azaspiro[2.5]octan-6-yl)phenyl)-2-hydroxyethane-1-sulfonamide]	0.004	0.038
Cc1cc(-c2nnc(-c3ccc(NS(=O)(=O)CCO)cc3N3CCC4(CC3)CC4)o2)nc(N2CCC(F)(F)CC2)c1 [Example I-87, N-(4-(5-(6-(4,4-Difluoropiperidin-1-yl)-4-methylpyridin-2-yl)-1,3,4-oxadiazol-2-yl)-3-(6-azaspiro [2.5]octan-6-yl)phenyl)-2-hydroxyethanesulfonamide]	0.004	0.144
Cc1cc(-c2nnc(-c3ccc(NS(=O)(=O)CCO)cc3N3CCC4(CC3)CC4)o2)nc(N2CCC(C(F)(F)F)C2)c1 (centres unmarked) [Example I-104, N-(4-(5-(4-Methyl-6-(3-(trifluoromethyl)pyrrolidin-1-yl)pyridin-2-yl)-1,3,4-oxadiazol-2-yl)-3-(6-azaspiro[2.5]octan-6-yl)phenyl)-2-hydroxyethane-1-sulfonamide]	0.013	–
Cc1cc(-c2nnc(-c3ccc(NS(=O)(=O)CCO)cc3N3CCC4(CC3)CC4)s2)nc(OCCC(F)(F)F)n1 [Example I-99, N-(4-(5-(6-Methyl-2-(3,3,3-trifluoropropoxy)pyrimidin-4-yl)-1,3,4-thiadiazol-2-yl)-3-(6-azaspiro[2.5]octan-6-yl)phenyl)-2-hydroxyethane-1-sulfonamide]	–	0.205
Cc1cc(-c2cnn(-c3ccc(NS(=O)(=O)CCO)cc3N3CCC(C)CC3)c2)nc(N2CCC(F)(F)CC2)n1 [Example I-125, N-(4-(4-(2-(4,4-Difluoropiperidin-1-yl)-6-methylpyrimidin-4-yl)-1H-pyrazol-1-yl)-3-(4-methylpiperidin-1-yl)phenyl)-2-hydroxyethane-1-sulfonamide]	0.005	–
Cc1cc(-c2nnc(-c3ccc(NS(=O)(=O)CCO)cc3N3CCC4(CC3)CC4)o2)nc(N2CCC(C(F)(F)F)C2)n1 (centres unmarked) [Example I-98, N-(4-(5-(6-methyl-2-(3-(trifluoromethyl)pyrrolidin-1-yl)pyrimidin-4-yl)-1,3,4-oxadiazol-2-yl)-3-(6-azaspiro [2.5]octan-6-yl)phenyl)-2-hydroxyethane-sulfonamide]	0.018	–
Cc1cc(-c2nnc(-c3ccc(NS(=O)(=O)CCO)cc3N3CCC4(CC3)CC4)o2)nc(N2CCCC(C(F)(F)F)C2)c1 (centres unmarked) [Example I-103, N-(4-(5-(4-Methyl-6-(3-(trifluoromethyl)piperidin-1-yl)pyridin-2-yl)-1,3,4-oxadiazol-2-yl)-3-(6-azaspiro[2.5]octan-6-yl)phenyl)-2-hydroxyethane-1-sulfonamide]	0.012	–
Cc1cc(-c2nnc(-c3ccc(NS(=O)(=O)CCO)cc3N3CCC4(CC3)CC4)o2)c(F)c(N2CCC(F)(F)CC2)n1 [Example I-53]	–	0.214
